Measured values reported in patent publication US20200150109A1, “MICROTUBULE-TARGETING DRUGS AS IMMUNE CHECKPOINT INHIBITORS AND METHODS OF SCREENING NOVEL IMMUNE CHECKPOINT INHIBITORS FOR THE TREATMENT OF CANCERS AND INFECTIOUS DISEASES” (INSERM (Institut National de la Santé et de la Recherche …, priority 2017, published 2020).
Entries after “also recorded” stand apart in the source; their conditions may differ.

Tests used:
PD-1 mRNA = experiment: qRT-PCR of PD-1 mRNA from activated CD3+ T lymphocytes; format: cell-based, human; settings: activated CD3+ T lymphocytes treated or not with CI-980; 3 independent experiments
PD-1 protein = experiment: Immunoblot of PD-1 protein in CD3+ T lymphocyte cell extracts; format: cell-based, human; settings: CD3+ T lymphocytes cell extracts, treated or not with CI-980; 3 independent experiments
Method: CD3+T lymphocytes cell extracts, treated or not with CI-980, were analyzed by immunoblots.

Karpas-299 = experiment: Cytotoxicity assay, drug-treated activated PBMC against Karpas-299; format: cell-based, human; settings: PBMC activated 3 days with CI-980 10 nM, rinsed, 4 hours with Karpas-299, 2:1 effector-to-target ratio
Method: (§1) PBMC isolated from healthy donors were activated with anti-CD3/CD28 antibodies-coated beads plus IL-2, in the presence or absence of CI-980 (10 nM). After 3 days, PBMC were rinsed and co-incubated for 4 hours with the PD-L1^+ cancer cell lines Karpas-299 or SU-DHL-1. Specific lysis of the target cell lines was then measured by staining of dying cells with propidium iodide (PI) and flow cytometry analysis.
(§2) PBMC isolated from healthy donors, used as effector cells, were activated with CD3/CD28 beads and IL-2, in presence or absence of CI-980 (10 nM). Human cancer cell lines-expressing PD-L1 karpas-299 and SU-DHL-1 were used as targets cells. Prior to be mixed with the effector cells, target cells were labelled with CellTrace-Violet (ThermoFisher) in order to distinguish them from the effector cells. After 3 days, effector cells were rinsed and combined with target cells at a 2:1 effector-to-target ratio. Cells were incubated during 4 hours at 37° C. and specific lysis were analysed by flow cytometry. The percentage of lysis was determined as percent of cells positive for both propidium iodide (PI) and CellTrace-Violet versus cells positive for CellTrace-Violet.

CTLA4 = experiment: Immune checkpoint expression by activated T lymphocytes (flow cytometry), CTLA4; format: cell-based, human; settings: CD3+ T lymphocytes activated with anti-CD3/CD28 beads + IL-2; CI-980 10 nM; 3 days
Method: (§3) CD3+ T lymphocyes were activated with anti-CD3/CD28 antibodies-coated beads plus IL-2, in the presence or absence of CI-980 (10 nM), and immune checkpoint expression were assessed by flow cytometry 3 days later.
(§4) PBMC isolated from healthy donors were activated with CD3/CD28 antibodies-coated beads (ThermoFisher) and IL-2 (100 IU/ml) in the presence of the specified concentration of the tested drug. In the example (FIG. 1), these drugs include CI-980 (so-called NSC 613862 or mivobulin) (10 nM, or 1 nM and 0.1 nM as indicated in Figures), Combretastatin-A4 (CBT-A4), (100 nM), Colchicine (100 nM), Indibulin (100 nM), Vincristine (1 μM), Vinblastine (1 μM), Vinflunine (1 μM), Vinorelbine (1 μM), Paclitaxel (1 μM), 13-Lumi(−)-Colchicine (100 nM), Camptothecin (CPT) (1 μM), Triptolide (100 nM), Mitomycin C (1 μM), Aphidicolin (1 μM). After 3 days of in vitro cell culture in complete medium at 37° C. in a humidified atmosphere containing 5% CO2, cells were immunostained for CD3 (BioLegend, clone UCHT1), CD4 (BioLegend, clone RPA-T4), CD8 (BioLegend, clone RPA-T8), CD69 (BioLegend, clone FN50), CD279 (BD Biosciences, clone EH12.1), LAG3 (BioLegend, clone 11C3C65), TIM3 (BioLegend, clone F38-2E2) and CTLA4 (BioLegend, clone BNI3) expression and then analysed for immune checkpoint expression by flow cytometry and gating on the indicated subsets of T or NK cells.

LAG3 = experiment: Immune checkpoint expression by activated T lymphocytes (flow cytometry), LAG3; format: cell-based, human; settings: CD3+ T lymphocytes activated with anti-CD3/CD28 beads + IL-2; CI-980 10 nM; 3 days
Method: as §3, §4

TIM3 = experiment: Immune checkpoint expression by activated T lymphocytes (flow cytometry), TIM3; format: cell-based, human; settings: CD3+ T lymphocytes activated with anti-CD3/CD28 beads + IL-2; CI-980 10 nM; 3 days
Method: as §3, §4

SU-DHL-1 = experiment: Cytotoxicity assay, drug-treated activated PBMC against SU-DHL-1; format: cell-based, human; settings: PBMC activated 3 days with CI-980 10 nM, rinsed, 4 hours with SU-DHL-1, 2:1 effector-to-target ratio
Method: as §1, §2

PD-1 (CD279) = experiment: Cell-based test of PD-1 cell surface expression by activated T lymphocytes (flow cytometry); design: species or system human; settings: PBMC activated with CD3/CD28 beads + IL-2, 3 days, drugs at their optimum IC50 for proliferation (CPT, mitomycin C, aphidicolin 1 μM; triptolide, Lumi-colchicine 100 nM)
Method: Shown are means and standard deviations from more than ten independent experiments, using drugs at their respective optimum IC50 for proliferation.
as §4

[1] = molecular target: T1, PD-1 protein (programmed cell death protein 1, endogenous, from activated human CD3+ T lymphocytes) (human, UniProt Q15116 25-288); experiment: co-immunoprecipitation with anti-α-tubulin antibody from activated human CD3+ T lymphocyte extract, immunoblot for PD-1
T1 construct: Endogenous PD-1 in a T lymphocyte cell extract, detected by Western blot with anti-PD-1 (ThermoFisher PA5-20350); also called CD279; PDCD1
Method: FIG. 4: PD-1 protein is not associated with tubulin in T lymphocytes.
α-tubulin was immunoprecipitated from activated CD3+T lymphocytes isolated from human PBMC of healthy donors using an anti-α-tubulin antibody (Sigma-Aldrich, clone B-5-1-2). Immunoprecipitation control with an anti-PD-1 antibody (ebioscience, clone J116) was also carried out. Immunoprecipitates were subjected to SDS-PAGE, and the co-immunoprecipitated PD-1 was assessed by Western Blot using an anti-PD-1 antibody (ThermoFisher, # PA5-20350).

T1 sequence (Q15116 25-288 limits assumed): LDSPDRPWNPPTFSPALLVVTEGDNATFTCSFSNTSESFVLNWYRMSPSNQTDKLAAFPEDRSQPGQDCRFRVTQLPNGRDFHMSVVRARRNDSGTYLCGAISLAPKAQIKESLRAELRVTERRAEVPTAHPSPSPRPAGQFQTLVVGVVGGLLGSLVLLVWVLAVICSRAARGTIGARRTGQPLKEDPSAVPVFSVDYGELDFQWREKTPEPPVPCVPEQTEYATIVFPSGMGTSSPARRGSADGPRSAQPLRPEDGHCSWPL

Molecule: CCOC(=O)Nc1cc2c(c(N)n1)N=C(c1ccccc1)[C@H](C)N2 [CI-980]
- PD-1 mRNA level (qRT-PCR) (PD-1 mRNA): increase PD-1 mRNA level
- expression of PD-1 protein (immunoblot) (PD-1 protein): inhibit expression of PD-1 protein
- cytolytic activity (specific lysis of target cells, PI staining) (Karpas-299): enhance cytolytic activity of immune cells
- expression of CTLA4 (CTLA4): inhibits
- expression of LAG3 (LAG3): inhibits
- expression of TIM3 (TIM3): inhibits
- cytolytic activity (specific lysis of target cells, PI staining) (SU-DHL-1): enhance cytolytic activity of immune cells

Molecule: C[C@@]1(CO)[C@H](O)CC[C@@]2(C)[C@H]1CC[C@H]1C[C@@H]3C[C@@]12CC[C@]3(O)CO [aphidicolin]
- PD-1 cell surface expression (PD-1 (CD279)): do not inhibit PD-1 expression; also recorded: do not impact PD-1 expression

Molecule: COC1=C[C@@H]2C3=C([C@@H]2C1=O)[C@@H](NC(C)=O)CCc1cc(OC)c(OC)c(OC)c13 [beta-Lumi(−)-colchicine]
- PD-1 cell surface expression (PD-1 (CD279)): does not affect PD-1 expression
- PD-1 cell surface expression (PD-1 (CD279); listed as β-Lumi(−)-Colchicine): do not impact PD-1 expression

Molecule: CC[C@@]1(O)C(=O)OCc2c1cc1n(c2=O)Cc2cc3ccccc3nc2-1 [camptothecin]
- PD-1 cell surface expression (PD-1 (CD279)): do not inhibit PD-1 expression; also recorded: do not impact PD-1 expression

Molecule: CO[C@@]12[C@H](COC(N)=O)C3=C(C(=O)C(C)=C(N)C3=O)N1C[C@@H]1N[C@@H]12 [mitomycin C]
- PD-1 cell surface expression (PD-1 (CD279)): do not inhibit PD-1 expression; also recorded: do not impact PD-1 expression

Molecule: CC(C)[C@]12O[C@H]1[C@@H]1O[C@]13[C@]1(O[C@H]1C[C@H]1C4=C(CC[C@@]13C)C(=O)OC4)[C@@H]2O [triptolide]
- PD-1 cell surface expression (PD-1 (CD279)): do not inhibit PD-1 expression; also recorded: do not impact PD-1 expression

B1: tubulin (endogenous, immunoprecipitated with an anti-α-tubulin antibody from extracts of activated human CD3+ T lymphocytes) (other)
chain 1: MRECISIHVGQAGVQIGNACWELYCLEHGIQPDGQMPSDKTIGGGDDSFNTFFSETGAGKHVPRAVFVDLEPTVIDEVRTGTYRQLFHPEQLITGKEDAANNYARGHYTIGKEIIDLVLDRIRKLADQCTRLQGFLVFHSFGGGTGSGFTSLLMERLSVDYGKKSKLEFSIYPAPQVSTAVVEPYNSILTTHTTLEHSDCAFMVDNEAIYDICRRNLDIERPTYTNLNRLISQIVSSITASLRFDGALNVDLTEFQTNLVPYPRIHFPLATYAPVISAEKAYHEQLSVADITNACFEPANQMVKCDPGHGKYMACCLLYRGDVVPKDVNAAIATIKTKRTIQFVDWCPTGFKVGINYQPPTVVPGGDLAKVQRAVCMLSNTTAIAEAWARLDHKFDLMYAKRAFVHWYVGEGMEEGEFSEAREDMAALEKDYEEVGVDSVEGEGEEEGEEY
chain 2: MREIVHIQAGQCGNQIGAKFWEVISDEHGIDPTGTYHGDSDLQLDRISVYYNEATGGKYVPRAILVDLEPGTMDSVRSGPFGQIFRPDNFVFGQSGAGNNWAKGHYTEGAELVDSVLDVVRKEAESCDCLQGFQLTHSLGGGTGSGMGTLLISKIREEYPDRIMNTFSVVPSPKVSDTVVEPYNATLSVHQLVENTDETYCIDNEALYDICFRTLRLTTPTYGDLNHLVSGTMECVTTCLRFPGQLNADLRKLAVNMVPFPRLHFFMPGFAPLTSRGSQQYRALTVPDLTQQVFDAKNMMAACDPRHGRYLTVAAVFRGRMSMKEVDEQMLNVQNKNSSYFVEWIPNNVKTAVCDIPPRGLKMAVTFIGNSTAIQELFKRISEQFTAMFRRKAFLHWYTGEGMDEMEFTEAESNMNDLVSEYQQYQDATAEEEEDFGEEAEEEA
notes: Endogenous protein from a cell lysate; also called alpha-tubulin
- binding result [1]: no binding
